Assay in all cases: relative viability (nuclei count vs DMSO), 5 days (fraction); higher = more cells survive
Compound in assay [1]: C1CNCCC1C2=CC(=NN2)C3=CC=NC=C3 + C[C@]1(O)C[C@@H](c2nc(-c3ccc4ccc(-c5ccccc5)nc4c3)c3c(N)nccn32)C1 [Linsitinib] (partner 1 µM)
The method, boiled down: (§1)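 Each reported value is a median over duplicate plates. It expresses relative viability: treated-well nuclei count divided by vehicle-well nuclei count. Lung cancer cell lines in 1536-well plates were dosed by pin tool a day after seeding, alone with one drug or with a fixed anchor-drug dose plus five library-drug doses (not always all listed) in √10 steps, and nuclei were counted after 5 days.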

Compound in assay [2]: O[C@H]1CC[C@H](Nc2ncc3nc(Nc4c(F)cc(F)cc4F)n([C@H]4CCOC4)c3n2)CC1 [Tanzisertib] + O=C(CCCCCCC(=O)Nc1ccccc1)NO [Vorinostat] (partner 1 µM)
A digest of the protocol: as §1

Compound in assay [3]: C[C@@H](N)c1ccc(C(=O)Nc2ccnc3[nH]ccc23)cc1 + CC(=O)Nc1cccc(-n2c(=O)n(C3CC3)c(=O)c3c(Nc4ccc(I)cc4F)n(C)c(=O)c(C)c32)c1 [Trametinib] (partner 0.02 µM)
A digest of the protocol:
as §1

Compound in assay [4]: O[C@H]1CC[C@H](Nc2ncc3nc(Nc4c(F)cc(F)cc4F)n([C@H]4CCOC4)c3n2)CC1 [Tanzisertib] + CC1(C)CCC(c2ccc(Cl)cc2)=C(CN2CCN(c3ccc(C(=O)NS(=O)(=O)c4ccc(N[C@H](CCN5CCOCC5)CSc5ccccc5)c(S(=O)(=O)C(F)(F)F)c4)cc3)CC2)C1 [Navitoclax] (partner 0.5 µM)
A digest of the protocol: as §1

Consider UMC-11, for which the relative viability in assay [1] (first compound 0.08 µM) is 0.987; in assay [1] (first compound 0.8 µM) it was 1.08; in assay [1] (first compound 2.53 µM), 1.17; in assay [1] (first compound 8 µM) it was 0.982; in assay [2] (first compound 0.08 µM) it was 0.41; in assay [2] (first compound 0.253 µM) it was 0.401. In addition, the relative viability worked out at 0.438 in assay [2] (first compound 0.8 µM); 0.404 in assay [2] (first compound 2.53 µM); 0.388 in assay [2] (first compound 8 µM); 0.867 in assay [3] (first compound 0.04 µM); 0.767 in assay [3] (first compound 0.1265 µM); 0.849 in assay [3] (first compound 0.4 µM). In addition, the relative viability in assay [3] (first compound 1.265 µM) came out at 0.184; in assay [3] (first compound 4 µM), 0.525; in assay [4] (first compound 0.08 µM), 0.33; in assay [4] (first compound 0.253 µM), 0.319; in assay [4] (first compound 0.8 µM), 0.362; in assay [4] (first compound 2.53 µM), 0.342. In addition, the relative viability in assay [4] (first compound 8 µM) turned out to be 0.392.

Source of the values: the supplement of paper PMC10307832.
